Measured values from ChEMBL document CHEMBL5696442, “Discovery of type II inhibitors of TGFβ-activated kinase 1 (TAK1) and mitogen-activated protein kinase kinase kinase kinase 2 (MAP4K2)” (J Med Chem, 2015).
Active and inactive are the calls of the source. No cut-off for these calls is given here.

How the values were obtained:
[1] = target: Serine/threonine-protein kinase 24 (Homo sapiens) (UniProt Q9Y6E0); assay: Inhibition of MST3 Lys2 labeling site harbouring IHRDIKAANVLLSEHGEVK in human Huh-7 cell lysate at 1 uM by KiNativ Profiling analysis relative to control; assay type: subcellular
[2] = target: T1, Mitogen-activated protein kinase kinase kinase kinase 2 (Homo sapiens) (UniProt Q12851); assay: Inhibition of MAP4K2 (GCK) Lys2 labeling site in human A-375 cells at 5 uM by KiNativ Profiling analysis relative to control; assay type: cell-based
T1 sequence (whole entry): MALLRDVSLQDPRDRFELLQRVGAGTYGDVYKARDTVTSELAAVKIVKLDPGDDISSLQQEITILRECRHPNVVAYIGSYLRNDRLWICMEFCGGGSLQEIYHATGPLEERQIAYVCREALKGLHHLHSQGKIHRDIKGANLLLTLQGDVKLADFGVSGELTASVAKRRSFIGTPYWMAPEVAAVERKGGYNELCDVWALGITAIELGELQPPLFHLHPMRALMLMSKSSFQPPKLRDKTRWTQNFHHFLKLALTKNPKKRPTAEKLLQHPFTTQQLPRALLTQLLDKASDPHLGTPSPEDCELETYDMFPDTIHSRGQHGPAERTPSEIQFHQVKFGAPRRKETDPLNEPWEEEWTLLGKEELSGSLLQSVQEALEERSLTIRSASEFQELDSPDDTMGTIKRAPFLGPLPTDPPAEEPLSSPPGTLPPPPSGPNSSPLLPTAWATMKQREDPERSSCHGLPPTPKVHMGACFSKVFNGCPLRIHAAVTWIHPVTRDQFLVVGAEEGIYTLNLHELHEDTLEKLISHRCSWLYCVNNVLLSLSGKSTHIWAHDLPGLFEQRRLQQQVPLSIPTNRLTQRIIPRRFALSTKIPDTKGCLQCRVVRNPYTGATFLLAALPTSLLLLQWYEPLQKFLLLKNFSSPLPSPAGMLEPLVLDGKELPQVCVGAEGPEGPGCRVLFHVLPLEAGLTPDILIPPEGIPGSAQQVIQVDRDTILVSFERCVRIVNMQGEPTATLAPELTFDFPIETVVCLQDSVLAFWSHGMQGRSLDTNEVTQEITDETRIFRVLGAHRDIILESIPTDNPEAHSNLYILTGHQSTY

[3] = target: Mitogen-activated protein kinase 7 (Homo sapiens) (UniProt Q13164); assay: Inhibition of Erk5 K2 labeling site in human Huh-7 cells at 10 uM by KiNativ Profiling analysis relative to control; assay type: cell-based
[4] = target: Non-receptor tyrosine-protein kinase TYK2 (Homo sapiens) (UniProt P29597); assay: Inhibition of TYK2 domain2 ACT labeling site in human A-375 cells at 0.05 uM by KiNativ Profiling analysis relative to control; assay type: cell-based
[5] = target: Interferon-induced, double-stranded RNA-activated protein kinase (Homo sapiens) (UniProt P19525); assay: Inhibition of PRKR (unknown origin) at 10 uM by Ambit Kinomescan binding assay
[6] = target: Mast/stem cell growth factor receptor Kit (Homo sapiens) (UniProt P10721); assay: Inhibition of KIT (unknown origin) at 10 uM by Ambit Kinomescan binding assay relative to control
[7] = target: T2, Dual specificity mitogen-activated protein kinase kinase 4 (Homo sapiens) (UniProt P45985); assay: Inhibition of MEK4 (unknown origin) at 10 uM by Ambit Kinomescan binding assay
T2 sequence (whole entry): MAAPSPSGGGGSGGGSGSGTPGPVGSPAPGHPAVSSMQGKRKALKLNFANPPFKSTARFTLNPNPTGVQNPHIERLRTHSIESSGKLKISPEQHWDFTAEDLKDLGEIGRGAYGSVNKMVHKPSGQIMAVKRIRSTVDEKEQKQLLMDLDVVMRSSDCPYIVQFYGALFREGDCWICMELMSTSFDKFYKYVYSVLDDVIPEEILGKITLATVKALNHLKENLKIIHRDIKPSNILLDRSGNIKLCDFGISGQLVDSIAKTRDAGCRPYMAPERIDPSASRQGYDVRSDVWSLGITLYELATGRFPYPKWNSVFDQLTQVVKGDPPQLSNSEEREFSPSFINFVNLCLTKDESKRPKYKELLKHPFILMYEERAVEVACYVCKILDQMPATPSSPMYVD

[8] = target: Phosphatidylinositol 4-phosphate 5-kinase type-1 alpha (Homo sapiens) (UniProt Q99755); assay: Inhibition of PIP5K1A (unknown origin) at 1 uM by Ambit Kinomescan binding assay relative to control; values are per cent of control
[9] = target: Serine/threonine-protein kinase Nek3 (Homo sapiens) (UniProt P51956); assay: Inhibition of NEK3 (unknown origin) at 1 uM by Ambit Kinomescan binding assay relative to control; values are per cent of control
Sequence of Serine/threonine-protein kinase Nek3 (Homo sapiens) (P51956 whole entry): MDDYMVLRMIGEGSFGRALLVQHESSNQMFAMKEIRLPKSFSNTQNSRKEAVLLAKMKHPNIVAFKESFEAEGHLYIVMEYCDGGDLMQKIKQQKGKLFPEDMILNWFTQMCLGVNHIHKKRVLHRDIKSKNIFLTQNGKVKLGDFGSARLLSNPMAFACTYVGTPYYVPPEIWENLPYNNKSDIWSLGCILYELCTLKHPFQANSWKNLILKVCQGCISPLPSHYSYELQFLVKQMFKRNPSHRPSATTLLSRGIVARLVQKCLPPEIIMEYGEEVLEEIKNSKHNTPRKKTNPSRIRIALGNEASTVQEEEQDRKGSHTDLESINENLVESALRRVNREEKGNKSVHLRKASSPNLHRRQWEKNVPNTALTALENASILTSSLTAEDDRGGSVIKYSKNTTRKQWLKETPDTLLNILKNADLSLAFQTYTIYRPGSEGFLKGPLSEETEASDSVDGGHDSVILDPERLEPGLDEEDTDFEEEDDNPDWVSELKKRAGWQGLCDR

Sequence of Serine/threonine-protein kinase 24 (Homo sapiens) (Q9Y6E0 whole entry, looked up): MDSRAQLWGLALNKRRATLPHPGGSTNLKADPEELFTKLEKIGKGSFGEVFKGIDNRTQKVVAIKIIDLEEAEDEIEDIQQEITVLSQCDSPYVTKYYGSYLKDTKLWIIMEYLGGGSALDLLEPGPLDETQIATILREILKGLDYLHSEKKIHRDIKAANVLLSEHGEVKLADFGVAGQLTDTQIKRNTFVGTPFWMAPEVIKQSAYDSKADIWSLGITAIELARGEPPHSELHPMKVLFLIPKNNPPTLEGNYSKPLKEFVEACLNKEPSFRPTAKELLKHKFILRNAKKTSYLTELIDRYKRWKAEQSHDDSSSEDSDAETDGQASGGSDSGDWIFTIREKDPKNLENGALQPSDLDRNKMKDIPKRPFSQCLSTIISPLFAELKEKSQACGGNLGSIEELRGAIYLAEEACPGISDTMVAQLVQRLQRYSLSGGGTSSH
Sequence of Mast/stem cell growth factor receptor Kit (Homo sapiens) (P10721 whole entry): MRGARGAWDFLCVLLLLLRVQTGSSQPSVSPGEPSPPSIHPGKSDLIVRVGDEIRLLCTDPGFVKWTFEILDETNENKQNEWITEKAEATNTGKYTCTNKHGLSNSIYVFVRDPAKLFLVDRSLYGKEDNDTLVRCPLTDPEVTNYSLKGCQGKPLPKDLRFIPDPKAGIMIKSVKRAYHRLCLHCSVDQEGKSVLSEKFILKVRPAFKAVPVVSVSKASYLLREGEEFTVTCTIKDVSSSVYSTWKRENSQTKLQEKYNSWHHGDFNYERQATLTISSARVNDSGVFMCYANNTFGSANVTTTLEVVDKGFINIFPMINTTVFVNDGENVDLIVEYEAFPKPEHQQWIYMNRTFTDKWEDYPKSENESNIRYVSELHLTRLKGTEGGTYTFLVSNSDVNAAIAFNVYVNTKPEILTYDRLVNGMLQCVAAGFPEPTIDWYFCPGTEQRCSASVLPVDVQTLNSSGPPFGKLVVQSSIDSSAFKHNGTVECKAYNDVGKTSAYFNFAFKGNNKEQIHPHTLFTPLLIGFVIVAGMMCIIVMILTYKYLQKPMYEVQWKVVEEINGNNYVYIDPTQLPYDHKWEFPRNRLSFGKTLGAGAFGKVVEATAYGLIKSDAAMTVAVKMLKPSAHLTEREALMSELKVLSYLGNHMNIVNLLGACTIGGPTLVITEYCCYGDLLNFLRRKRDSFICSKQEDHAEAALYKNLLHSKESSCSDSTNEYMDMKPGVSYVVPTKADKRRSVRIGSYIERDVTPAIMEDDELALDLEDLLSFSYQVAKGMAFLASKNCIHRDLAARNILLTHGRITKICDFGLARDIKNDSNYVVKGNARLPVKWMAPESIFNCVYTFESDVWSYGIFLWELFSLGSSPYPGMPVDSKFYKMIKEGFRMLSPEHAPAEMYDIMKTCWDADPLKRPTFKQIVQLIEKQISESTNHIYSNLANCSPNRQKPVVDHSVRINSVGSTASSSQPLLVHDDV
Sequence of Non-receptor tyrosine-protein kinase TYK2 (Homo sapiens) (P29597 whole entry, the tested form may be a part): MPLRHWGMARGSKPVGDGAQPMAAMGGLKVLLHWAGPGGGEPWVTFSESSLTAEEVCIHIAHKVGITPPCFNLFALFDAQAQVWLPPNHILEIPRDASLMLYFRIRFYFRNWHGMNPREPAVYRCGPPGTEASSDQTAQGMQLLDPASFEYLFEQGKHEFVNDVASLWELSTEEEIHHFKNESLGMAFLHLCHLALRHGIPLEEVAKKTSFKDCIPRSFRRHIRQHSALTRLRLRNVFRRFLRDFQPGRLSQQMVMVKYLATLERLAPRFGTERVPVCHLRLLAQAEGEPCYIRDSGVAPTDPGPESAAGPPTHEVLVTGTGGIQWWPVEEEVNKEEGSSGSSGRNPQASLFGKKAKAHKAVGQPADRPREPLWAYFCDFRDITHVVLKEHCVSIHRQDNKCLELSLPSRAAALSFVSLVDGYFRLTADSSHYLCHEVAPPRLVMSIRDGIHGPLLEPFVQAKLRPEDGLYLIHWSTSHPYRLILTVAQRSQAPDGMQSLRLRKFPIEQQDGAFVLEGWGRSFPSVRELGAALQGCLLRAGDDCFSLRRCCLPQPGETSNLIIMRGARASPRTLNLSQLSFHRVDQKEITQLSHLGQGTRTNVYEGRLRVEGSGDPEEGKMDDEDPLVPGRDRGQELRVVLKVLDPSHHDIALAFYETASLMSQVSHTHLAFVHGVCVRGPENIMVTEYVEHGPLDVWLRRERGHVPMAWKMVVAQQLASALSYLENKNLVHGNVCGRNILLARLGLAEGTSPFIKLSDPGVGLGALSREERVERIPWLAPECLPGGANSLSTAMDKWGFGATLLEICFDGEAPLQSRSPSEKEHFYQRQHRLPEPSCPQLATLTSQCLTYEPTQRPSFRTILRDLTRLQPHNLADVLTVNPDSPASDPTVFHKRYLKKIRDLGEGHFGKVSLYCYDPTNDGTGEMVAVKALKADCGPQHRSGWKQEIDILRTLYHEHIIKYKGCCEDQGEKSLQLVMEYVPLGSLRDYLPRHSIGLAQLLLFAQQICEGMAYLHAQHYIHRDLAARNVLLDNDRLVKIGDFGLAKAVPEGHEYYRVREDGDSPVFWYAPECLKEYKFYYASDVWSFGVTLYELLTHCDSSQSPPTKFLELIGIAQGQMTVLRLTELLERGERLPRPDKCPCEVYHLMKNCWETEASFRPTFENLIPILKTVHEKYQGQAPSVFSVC
Sequence of Phosphatidylinositol 4-phosphate 5-kinase type-1 alpha (Homo sapiens) (Q99755 whole entry): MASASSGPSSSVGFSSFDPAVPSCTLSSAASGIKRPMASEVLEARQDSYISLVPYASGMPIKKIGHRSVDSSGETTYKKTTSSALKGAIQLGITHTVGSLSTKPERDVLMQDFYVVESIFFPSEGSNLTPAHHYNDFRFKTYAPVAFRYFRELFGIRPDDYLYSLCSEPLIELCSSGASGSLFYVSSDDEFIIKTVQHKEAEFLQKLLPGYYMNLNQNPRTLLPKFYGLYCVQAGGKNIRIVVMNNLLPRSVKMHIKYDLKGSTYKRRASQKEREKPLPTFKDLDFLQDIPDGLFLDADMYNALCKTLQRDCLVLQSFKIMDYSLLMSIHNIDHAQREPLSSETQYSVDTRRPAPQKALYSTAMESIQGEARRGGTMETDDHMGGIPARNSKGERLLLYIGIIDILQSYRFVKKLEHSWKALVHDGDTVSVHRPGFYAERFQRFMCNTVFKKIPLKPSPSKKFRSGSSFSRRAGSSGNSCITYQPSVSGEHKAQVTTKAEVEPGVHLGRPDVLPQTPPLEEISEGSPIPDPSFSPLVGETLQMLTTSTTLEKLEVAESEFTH
Sequence of Mitogen-activated protein kinase 7 (Homo sapiens) (Q13164 2-816 limits assumed): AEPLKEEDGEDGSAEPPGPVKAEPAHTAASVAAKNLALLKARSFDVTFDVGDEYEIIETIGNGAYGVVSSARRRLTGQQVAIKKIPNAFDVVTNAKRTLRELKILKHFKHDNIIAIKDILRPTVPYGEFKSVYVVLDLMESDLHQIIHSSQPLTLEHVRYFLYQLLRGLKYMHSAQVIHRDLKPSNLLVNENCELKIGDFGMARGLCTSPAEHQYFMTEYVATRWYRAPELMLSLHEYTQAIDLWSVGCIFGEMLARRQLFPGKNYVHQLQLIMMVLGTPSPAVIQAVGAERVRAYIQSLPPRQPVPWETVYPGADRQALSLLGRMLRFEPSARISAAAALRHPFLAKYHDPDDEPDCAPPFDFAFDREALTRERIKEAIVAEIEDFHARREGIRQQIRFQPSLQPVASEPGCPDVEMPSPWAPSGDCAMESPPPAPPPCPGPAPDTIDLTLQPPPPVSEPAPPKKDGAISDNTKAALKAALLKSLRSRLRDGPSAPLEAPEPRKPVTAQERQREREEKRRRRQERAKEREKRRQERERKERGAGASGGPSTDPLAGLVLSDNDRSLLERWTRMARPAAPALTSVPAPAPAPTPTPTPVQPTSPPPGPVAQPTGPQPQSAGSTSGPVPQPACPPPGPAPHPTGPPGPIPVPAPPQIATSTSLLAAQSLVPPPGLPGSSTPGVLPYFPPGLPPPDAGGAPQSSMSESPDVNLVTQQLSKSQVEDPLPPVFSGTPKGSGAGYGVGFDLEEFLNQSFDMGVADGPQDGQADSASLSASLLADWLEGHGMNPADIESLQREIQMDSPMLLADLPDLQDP
Sequence of Interferon-induced, double-stranded RNA-activated protein kinase (Homo sapiens) (P19525 whole entry): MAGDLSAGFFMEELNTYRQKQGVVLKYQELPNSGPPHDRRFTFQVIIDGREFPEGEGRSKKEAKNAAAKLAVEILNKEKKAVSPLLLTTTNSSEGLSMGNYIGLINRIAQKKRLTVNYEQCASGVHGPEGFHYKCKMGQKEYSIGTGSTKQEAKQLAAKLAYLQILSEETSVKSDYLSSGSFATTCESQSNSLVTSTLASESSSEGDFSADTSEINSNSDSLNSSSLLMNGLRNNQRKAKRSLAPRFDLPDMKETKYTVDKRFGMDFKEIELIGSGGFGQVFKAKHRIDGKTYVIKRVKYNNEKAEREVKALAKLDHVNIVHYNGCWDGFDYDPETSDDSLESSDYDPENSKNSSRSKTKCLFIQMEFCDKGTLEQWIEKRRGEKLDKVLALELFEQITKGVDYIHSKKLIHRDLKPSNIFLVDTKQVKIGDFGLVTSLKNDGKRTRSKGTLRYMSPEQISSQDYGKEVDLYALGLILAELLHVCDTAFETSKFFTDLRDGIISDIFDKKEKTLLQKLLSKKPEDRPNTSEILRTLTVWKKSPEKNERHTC

`CNc1cc(Oc2cc(C(=O)Nc3cc(N4CCN(C)CC4)cc(C(F)(F)F)c3)ccc2C)ncn1` was tested. Which inhibition [1] did it give?
The inhibition was 15.9%.

Which inhibition [2] does the source give for `CCN1CCN(Cc2ccc(NC(=O)c3ccc(C)c(Oc4ccnc5[nH]ccc45)c3)cc2C(F)(F)F)CC1` here?
The inhibition was 96.6%.

What about the inhibition [3] of the same compound?
Its inhibition is 12.4%.

What about the inhibition [4] of the same compound?
The inhibition was -4.4%.

What about the inhibition [5] of the same compound?
The inhibition was “inactive”.

And the inhibition [6]?
Its inhibition is 0%.

What about the inhibition [7] of the same compound?
The inhibition was “inactive”.

Which results are given for `CCN1CCN(Cc2ccc(NC(=O)c3ccc(C)c(/C=C/c4cnc5[nH]ccc5c4OC)c3)cc2C(F)(F)F)CC1`?
residual activity [8]: 21%; residual activity [9]: 79%
